# Patent publication US4163011A, “Peptide compounds and compositions” (priority 1978, dated 1979)
# Peptide text beside a SMILES is read from it.
# Columns and labels:
# Format in all cases: in vivo
# [1] = system: adult female mice; assay: Compensatory Ovarian Hypertrophy (COH) after unilateral ovariectomy (Table I); settings: for COH (± SE): sacrificed day 5, control 45.5 ± 5.3
# Procedure: A. Compensatory Ovarian Hypertrophy (COH) is an effect in standard laboratory (mammalian) animals for assessing antigonadotrophic activity by determining the increase in weight of the remaining gonad after unilateral gonadectomy. Procedures for COH measurement in female rats are described in Ramirez, V.D., et al., Endocrinology 95:475 (1974). According to these known procedures threonine-serine-lysine, prepared in Example 1, is administered intraperitoneally to adult female mice on the same day as a unilateral ovariectomy is performed. On day 5, both experimental and control animals are sacrificed and mean ovarian weights are obtained.
# [2] = system: Female Mice; assay: Compensatory ovarian hypertrophy in unilaterally ovariectomized mice (Table II); settings: 5 days after treatment, control 29.7 ± 8.4
# Procedure: (§1) B. The effect of threonine-serine-lysine on serum concentrations of FSH in the […] is measured 24 hr after intraperitoneal injection of threonine-serine-lysine to unilaterally ovariectomized mice. On day 5 after injection, the animals were sacrificed and ovarian weights recorded There are then determined compensatory ovarian hypertrophy (5 days after treatment) as well as the serum FSH (24 hr after treatment).
# [3] = system: GnRH-induced rise in FSH; assay: Inhibition of GnRH-induced rise in FSH in the male rat (Table III); settings: for Mean concentration of plasma FSH (± SE): GnRH-treated male rat
# Procedure: C. The antifertility effects of threonine-serine-lysine on the male rat are measured by their ability to inhibit GnRH-or gonadotropin releasing hormone-induced rise in FSH when threonine-serine-lysine is administered intravenously. In this test, both control and tripeptide-treated animals received GnRH in a phosphate buffered saline solution, followed by the administration of the tripeptide in the same buffer.
# [4] = system: Serum FSH; assay: Serum FSH in unilaterally ovariectomized mice (Table II); settings: 24 hr after treatment, control 296.8 ± 375
# Procedure: as §1
compound,measurement,setting,value
C[C@@H](O)[C@H](N)C(=O)N[C@@H](CO)C(=O)N[C@@H](CCCCN)C(=O)O [threonine-serine-lysine] (H-Thr-Ser-Lys-OH),COH (± SE),[1]; dose 186.1 ng intraperitoneally on day of unilateral ovariectomy,34.6 ± 6.8%
same,COH (± SE),[1]; dose 372.2 ng intraperitoneally on day of unilateral ovariectomy,11.1 ± 15.1%
same,"Compensatory ovarian hypertrophy, result in words","[1]; intraperitoneal, Table I doses",reduced in a dose-dependent manner
same,COH (± SE),[2]; dose 35.1 ng intraperitoneal,12.6 ± 10.9%
same,COH (± SE),[2]; dose 70.3 ng intraperitoneal,21.9 ± 8.0%
same,COH (± SE),[2]; dose 175.7 ng intraperitoneal,12.9 ± 5.0%
same,COH (± SE),[2]; dose 351.7 ng intraperitoneal,21.1 ± 7.8%
same,Mean concentration of plasma FSH (± SE),"[3]; dose 1.48 ng intravenously, 0 min, control 362.5 ± 20.7",302.2 ± 26.2 ng/mL
same,Mean concentration of plasma FSH (± SE),"[3]; dose 1.48 ng intravenously, 15 min, control 1753.4 ± 450.6",338.4 ± 38.8 ng/mL
same,Mean concentration of plasma FSH (± SE),"[3]; dose 1.48 ng intravenously, 30 min, control 1701.6 ± 720.6",592.5 ± 217.6 ng/mL
same,Mean concentration of plasma FSH (± SE),"[3]; dose 1.48 ng intravenously, 60 min, control 247.8 ± 14.0",586.5 ± 301.3 ng/mL
same,Mean concentration of plasma FSH (± SE),"[3]; dose 14.8 ng intravenously, 0 min, control 362.5 ± 20.7",45.6 ± 52.3 ng/mL
same,Mean concentration of plasma FSH (± SE),"[3]; dose 14.8 ng intravenously, 15 min, control 1753.4 ± 450.6",402.9 ± 117.7 ng/mL
same,Mean concentration of plasma FSH (± SE),"[3]; dose 14.8 ng intravenously, 30 min, control 1701.6 ± 720.6",472.7 ± 76.9 ng/mL
same,Mean concentration of plasma FSH (± SE),"[3]; dose 14.8 ng intravenously, 60 min, control 247.8 ± 14.0",684.5 ± 142.0 ng/mL
same,Mean concentration of plasma FSH (± SE),"[3]; dose 148 ng intravenously, 0 min, control 362.5 ± 20.7",43.9 ± 85.6 ng/mL
same,Mean concentration of plasma FSH (± SE),"[3]; dose 148 ng intravenously, 15 min, control 1753.4 ± 450.6",646.1 ± 198.0 ng/mL
same,Mean concentration of plasma FSH (± SE),"[3]; dose 148 ng intravenously, 30 min, control 1701.6 ± 720.6",1407.8 ± 499.6 ng/mL
same,Mean concentration of plasma FSH (± SE),"[3]; dose 148 ng intravenously, 60 min, control 247.8 ± 14.0",1279.6 ± 180.8 ng/mL
same,"GnRH-induced rise in FSH, result in words","[3]; intravenous, male rat, Table III doses",FSH suppression
same,Serum FSH (± SE),[4]; dose 35.1 ng intraperitoneal,254.4 ± 88.7 ng/mL
same,Serum FSH (± SE),[4]; dose 70.3 ng intraperitoneal,377.0 ± 56.9 ng/mL
same,Serum FSH (± SE),[4]; dose 175.7 ng intraperitoneal,165.0 ± 22.5 ng/mL
same,Serum FSH (± SE),[4]; dose 351.7 ng intraperitoneal,179.0 ± 60.9 ng/mL
